Here are results for four molecules from US10813894B2, “Methods of inhibiting pain” (The Regents of the University of California, priority 2015, dated 2020).

Entries after “also recorded” stand apart in the source; their conditions may differ.

Data set [1] relates to healthy rats. Nature of the data set: Intraplantar Tm, thermal withdrawal threshold (modified Hargreaves' test). The format is in vivo, rat. As to the method: (§1) FIGS. 7A-F illustrate that ER stress inducer tunicamycin (Tm) is rapid, intense and selective in generating pain behavior. (A) Tm is administered into the midsection of one hind paw in a volume of 10 μL (20 μg). Mechanical withdrawal of ipsi- and contralateral paws are then monitored over a period of 6 h until the ipsilateral paw measurements returned to baseline values. The withdrawal data are presented as gram force required for inducing a withdrawal reflex response. (B) Decreasing doses of Tm generated less intense allodynia which subsided faster than the highest dose. […] (D) Intraplantar Tm induced pain is reversible with sEH inhibitor (lh prior to Tm, i.p. administration) in a dose dependent manner. (E) Expectedly this pain is reversible with chemical chaperone 4-PBA. The basis for the increase above the baseline threshold in this group is not investigated.

Data set [2] relates to healthy rats. Nature of the data set: Intraplantar tunicamycin (Tm) induced pain model, mechanical withdrawal. The format is in vivo, rat. On the procedure: as §1
In data set [3] the test system is healthy rats. Nature of the data set: Intraplantar dimethylcelecoxib (DMCx) induced pain model. The format is in vivo, rat. As to the method: FIGS. 9A-C illustrate that mechanistically different ER stress inducer dimethylcelecoxib (DMCx) generates a rapid and intense but sEHI and cox-2 inhibitor reversible pain phenotype. (A) DMCx is administered into the midsection of one hind paw in a volume of 10 μL (20 μg). Mechanical withdrawal of ipsi- and contralateral paws are then monitored over a period of 4 h. The withdrawal data are presented as gram force required for inducing a withdrawal reflex response. (B) Intraplantar DMCx induced pain is reversible with sEH inhibitor (1 h prior to Tm, i.p. administration) in a dose dependent manner.

In data set [4] the test system is healthy rats. Nature of the data set: von Frey mechanical withdrawal threshold in healthy rats. The settings on record: 4-PBA 40 mg/kg.
Description: Standard nociceptive measurements were performed in all experiments. For the von Frey test an electronic rigid tip instrument was used (IITC, Woodland Hills Calif.). For the thermal nociceptive thresholds the modified Hargreaves' method was used. The baseline withdrawal thresholds before STZ administration were taken as 100% response and all mean nociceptive thresholds were converted to percentage values. Inhibitors were administered by intraperitoneal route after completely dissolving in vehicle PEG400 (1 mL/kg).
Data set [5] relates to type I diabetic rats. Nature of the data set: STZ induced type I diabetic rat neuropathic pain model, electronic von Frey test. To be noted: for Drug reduction index: combination of 4-PBA and TPPU, CompuSyn.
Description: Data are presented as mean±SEM in all subsequent figures throughout the text.
(B) The CompuSyn software was used to construct an isobologram of the interaction. ED50 values calculated for each drug are plotted on x and y-axis respectively. […] (C) Combination index (CI) is reported as the key parameter of the synergistic interaction.
Standard nociceptive measurements were performed in all experiments. For the von Frey test an electronic rigid tip instrument was used (IITC, Woodland Hills Calif.). […] The baseline withdrawal thresholds before STZ administration were taken as 100% response and all mean nociceptive thresholds were converted to percentage values. Inhibitors were administered by intraperitoneal route after completely dissolving in vehicle PEG400 (1 mL/kg).
Results are depicted as mean±SEM. CompuSyn software package was used to quantify the synergy between drugs.
The target in data set [6] is T1, sEH (Homo sapiens, UniProt P34913).
T1 sequence (P34913 1-555): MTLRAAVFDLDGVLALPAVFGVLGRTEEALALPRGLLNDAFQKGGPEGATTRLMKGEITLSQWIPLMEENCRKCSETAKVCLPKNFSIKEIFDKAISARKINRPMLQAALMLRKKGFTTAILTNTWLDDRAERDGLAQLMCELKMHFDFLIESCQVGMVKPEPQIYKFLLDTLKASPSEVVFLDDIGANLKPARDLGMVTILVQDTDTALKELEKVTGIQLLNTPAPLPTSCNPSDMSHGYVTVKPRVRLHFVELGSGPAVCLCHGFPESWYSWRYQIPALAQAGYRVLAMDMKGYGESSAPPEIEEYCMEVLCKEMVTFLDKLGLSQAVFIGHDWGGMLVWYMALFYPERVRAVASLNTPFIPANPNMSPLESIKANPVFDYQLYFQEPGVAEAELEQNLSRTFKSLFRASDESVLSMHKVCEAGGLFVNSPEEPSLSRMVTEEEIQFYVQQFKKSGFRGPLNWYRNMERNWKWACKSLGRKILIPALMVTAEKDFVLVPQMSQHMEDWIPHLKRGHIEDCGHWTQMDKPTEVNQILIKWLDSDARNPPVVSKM
Nature of the data set: Inhibition of sEH, assay not specified. The format is biochemical. The source says:
“Soluble epoxide hydrolase” (“sEH”) is an epoxide hydrolase which in endothelial and smooth muscle cells converts EETs to dihydroxy derivatives called dihydroxyeicosatrienoic acids (“DHETs”). The cloning and sequence of the murine sEH is set forth in Grant et al., J. Biol. Chem. 268(23):17628-17633 (1993). The cloning, sequence, and accession numbers of the human sEH sequence are set forth in Beetham et al., Arch. Biochem. Biophys. […] The amino acid sequence of human sEH is SEQ ID NO.:1, while the nucleic acid sequence encoding the human sEH is SEQ ID NO.:2. […] Unless otherwise specified, as used herein, the terms “soluble epoxide hydrolase” and “sEH” refer to human sEH.
Derivatives of urea are transition state mimetics that form a preferred group of sEH inhibitors. […] Any particular urea derivative or other compound can be easily tested for its ability to inhibit sEH by standard assays, such as those discussed herein. The production and testing of urea and carbamate derivatives as sEH inhibitors is set forth in detail in, for example, Morisseau et al., Proc Natl Acad Sci (USA) 96:8849-8854 (1999).
Any of a number of standard assays for determining epoxide hydrolase activity can be used to determine inhibition of sEH. […] Suitable in vitro assays are described in Zeldin et al., J Biol. Chem. 268:6402-6407 (1993). […]

For the molecule tunicamycin [Tm], the “Heat responses / thermal withdrawal threshold of the ipsilateral paw” value in data set [1] is “rapid and sustained loss of heat responses; also recorded: notable increase in thermal withdrawal threshold”. In addition, in data set [2] (hind paw of healthy rats), the “Induction of pain by intraplantar administration” value is “induce a significant degree of pain”. Further, the “Swelling after intraplantar administration” value in data set [2] (intraplantar Tm) is on record as “Minimal amount of swelling”. Further, the “Mechanical withdrawal threshold after Tm” value in data set [2] (intraplantar, 20 μg, ipsilateral paw) was 25 % of the baseline levels.
With `Cc1ccc(C)c(-c2cc(C(F)(F)F)nn2-c2ccc(S(N)(=O)=O)cc2)c1` [DMCx, dimethyl-celecoxib], the “Swelling after intraplantar administration” value in data set [3] is “Swelling of the ipsilateral paw”.
Regarding `O=C(O)CCCc1ccccc1` [Compound 4-PBA, 4-phenyl butyric acid], the “Reversal of Tm induced sensitivity to mechanical stimuli” value in data set [2] (pre-administration i.p. 1 h prior to Tm, celecoxib 30 mg/kg) is “reversed; also recorded: reversible”. Further, the “Acute mechanical withdrawal threshold in healthy rats” value in data set [4] is listed as “not antinociceptive; also recorded: does not result in change of acute mechanical withdrawal threshold”. The Drug reduction index in data set [5] (at ED50) is 2.2 fold; in data set [5] (at ED97), 3.9 fold. The “Allodynia / antinociception (von Frey withdrawal threshold)” value in data set [5] (diabetic rats, i.p., 4-PBA 10-100 mg/kg, TPPU 0.01-1 mg/kg) is “dose and time dependent antinociception occurs within minutes; also recorded: reduce allodynia in a dose and time dependent manner”. In addition, the “Antinociceptive efficacy at the highest dose” value in data set [5] (diabetic rats, systemic delivery, highest dose) was “full efficacy and rapid onset”. Further, in data set [5] (type I diabetic rats, 10 mg/kg, 6 h time period), the “Effect on pain-related behavior at 10 mg/kg” value is recorded as “ineffective”.
As for `CCCCCCCCCCCCNC(=O)NC12CC3CC(CC(C3)C1)C2` [ADU, N-Adamantyl-N′-dodecyl urea], in data set [6], the “Activity on sEH” value is “particularly high activity”.
